Experimental data taken from publication PMC8648660, “Multifunctional thiosemicarbazones targeting sigma receptors: in vitro and in vivo antitumor activities in pancreatic cancer models” (Cellular Oncology, 2021).
Several values for one entry are separate records, joined by “and”; a condition that tells them apart may be missing. Equal values may be shown once. Entries after “also recorded” stand apart in the source; their conditions may differ.

Columns and labels:
sigma-2 receptors [1] = molecular target: T1, sigma-2 receptors (Rattus norvegicus, UniProt Q5U3Y7); experiment: Sigma-2 radioligand binding assay ([3H]-DTG, rat liver membranes)
T1 construct: in rat liver membranes; from tissue; host or cells: rat liver membranes
Procedure: Sigma-2 receptor binding was carried out according to Berardi et al.. […] Concentrations required to inhibit 50 % of radioligand-specific binding (IC50) were determined using six to nine different concentrations of the drug in two or three experiments with samples in duplicate. Scatchard parameters (Kd and Bmax) and apparent inhibition constant (Ki) values were determined by nonlinear curve fitting, using Prism version 5.0, GraphPad software.

sigma-2 receptors [2] = molecular target: T2, sigma-2 receptors (Homo sapiens, UniProt Q5BJF2); experiment: Flow cytometry displacement of sigma-2 fluorescent ligand NO1 in human pancreatic cancer cells; type: binding
T2 construct: endogenous in cells; host or cells: MiaPaCa2, PANC-1, AsPC1 (whole cells)
Procedure: (§1) Flow cytometry studies to detect receptor densities and ligand binding affinities were carried out according to Abate et al. and Niso et al., for the sigma-1 and sigma-2 receptors, respectively. […] At the end of the incubation periods, the cells were washed twice with PBS, detached with […] Cell Dissociation Solution (Sigma Chemical Co.) for 10 min at 37 °C, centrifuged at 13,000 g for 5 min and resuspended in 500 µl PBS. Fluorescence was recorded using a Bio-Guava® easyCyte™ 5 Flow Cytometry System (Millipore, Billerica, MA, USA) equipped with a 530 nm band pass filter. For each analysis, 50,000 events were collected and analyzed using InCyte software (Millipore).

sigma-2 receptors [3] = molecular target: T3, sigma-2 receptors (Mus musculus, UniProt Q8VD00); experiment: Flow cytometry displacement of sigma-2 fluorescent ligand NO1 in murine KP02 cells; type: binding
T3 construct: endogenous in cells; host or cells: KP02 (murine pancreatic cancer cells)
Procedure: as §1

PANC02 cells = experiment: Cell viability MTT assay 48 h; type: cell-based, murine; conditions: Mus musculus, MTT 48 h, read-out: Activity EC50 ± SEM, PANC02
Procedure: (§2) Cell viability was assessed using a MTT assay at 48 h. On day 1, 25,000 cells/well were seeded into 96-well plates in 100 µl culture medium. On day 2, drugs at concentrations ranging from 1 µM to 100 µM were added. In all experiments the drug-solvents (EtOH, DMSO) were added as controls to evaluate possible solvent cyto-toxicities. After the established incubation time with drugs (48 h), MTT (0.5 mg/ml) was added to each well, and after 3–4 h incubation at 37 °C, the supernatants were removed. The formazan crystals formed were solubilized using 100 µl DMSO/EtOH (1:1) after which the absorbance values at 570 and 630 nm were determined using a microplate reader Victor 3 from PerkinElmer Life Sciences.

[4] = system: human (MiaPaCa2, PANC-1, AsPC1, BxPC3) and murine (KP02, PANC02) pancreatic cancer cells; experiment: Cell viability MTT assay 48 h, panel of pancreatic cancer cell lines; type: cell-based; conditions: range over six pancreatic cancer cell lines; read-out: EC50 cytotoxic activity in all the cell lines studied
Procedure: as §2

caspase 3 = experiment: Caspase 3 activity assay in pancreatic cancer cells; type: cell-based, human and murine; conditions: 2 h
Procedure: (§3) Caspase 3, caspase 7 and caspase 9 activation was measured using a Caspase 3/7 Fluorescence Assay kit (Cayman Chemical, Ann Arbor, MI, USA) and a Caspase 9 fluorometric assay kit (Enzo Life Science, Roma, Italy). The results are expressed as nmol of the hydrolyzed substrate of each caspase/mg cellular proteins, according to a previously set titration curve.

caspase 7 = experiment: Caspase 7 activity assay in pancreatic cancer cells; type: cell-based, human and murine; conditions: 50 µM, 2 h
Procedure: as §3

caspase 9 = experiment: Caspase 9 activity assay in pancreatic cancer cells; type: cell-based, human and murine; conditions: 2 h
Procedure: as §3

[5] = system: GRP78, ATF6, IRE1 and PERK; experiment: Western blotting of ER stress markers in pancreatic cancer cells; type: cell-based, human and murine; conditions: 50 µM, 2 h
Procedure: (§4) Cells were rinsed with ice-cold lysis buffer (50 mM, Tris, 10 mM EDTA, 1 % v/v Triton-X100), supplemented with protease inhibitor cocktail set III (80 µM aprotinin, 5 mM bestatin, 1.5 mM leupeptin, 1 mM pepstatin; Calbiochem, San Diego, CA, USA), 2 mM phenylmethylsulfonyl fluoride and 1 mM Na3VO4, then sonicated and centrifuged at 13,000 g for 10 min at 4 °C. 20 µg protein extracts were subjected to SDS-PAGE and probed with antibodies directed against ATG5, ATG7, ATG12, beclin, p62, LC3, GRP78, ATF6, IRE-1α and PERK (all from Abcam, Cambridge, UK), followed by incubation with a peroxidase-conjugated secondary antibody (Bio-Rad Laboratories). Next, the membranes were washed with Tris-buffered saline-Tween 0.1 % v/v solution, and proteins were detected by enhanced chemiluminescence (Bio-Rad Laboratories). To check for equal loading, the samples were probed with an anti-β-tubulin antibody (Santa Cruz Biotechnology Inc., Santa Cruz, CA, USA).

mitochondrial ROS = experiment: Mitochondrial ROS measurement (MitoSOX); type: cell-based, human and murine; conditions: 50 µM, 2 h
Procedure: Intra-mitochondrial ROS was measured using fluorescent probe MitoSOX as per manufacturer’s instructions (Invitrogen). To measure total ROS, cells were incubated with the ROS-sensitive probe 5-(and-6)-chlorometyl-20,70-dichlorodihydro-fluorescein diacetate-acetoxymethyl ester ([…]; DCFDA-AM) as described by Riganti et al.. The results are expressed as nmol/mg mitochondrial or cellular protein, respectively.

[6] = system: ATG5, ATG7, ATG12, beclin 1, p62, LC3; experiment: Western blotting of autophagy and sequestration markers; type: cell-based, human and murine; conditions: 50 µM, 2 h
Procedure: as §4

PANC-1 xenografts = experiment: In vivo xenograft assay, PANC-1; design: species or system mice; conditions: for tumor growth / intratumor apoptosis (cleaved caspase 3) and lipid peroxidation: 30 days
Procedure: 2 × 10^5 PANC-1 or Mia-PaCa2 cells were inoculated subcutaneously in the right flank of 6-week old C57BL/6 female nude mice (Charles River Laboratories Italia, Calco), housed (5 per cage) under a 12 h light/dark cycle, with food and drinking water provided ad libitum. Tumor growth was measured daily by caliper, according to the equation (LxW^2)/2, where L = tumor length and W = tumor width. When tumors reached a volume of 100 mm^3, the mice (n = 8/group) were randomized in the following groups and treated daily for 15 days or 30 days intraperitoneally as reported: (1) Vehicle group (100 µl saline solution), (2) FA4^low group (750 nmol FA4 in 100 µl saline solution), (3) FA4^high group (1500 nmol FA4 in 100 µl saline solution) and (4) Gemcitabine group (20 mg/kg gemcitabine, twice a week). Tumor volumes and animal weights were monitored daily. Animals were euthanized at day 18 or 36 after randomization with zolazepam (0.2 ml/kg) and xylazine (16 mg/kg). Next, tumors were excised and paraffin-embedded. Sections were immuno-stained for cleaved caspase 3 (Cell Signalling Technology, Danvers, MA, USA) or with an anti-malondialdehyde antibody (Abcam), followed by a peroxidase-conjugated secondary antibody (Dako, Glostrup, Denmark). The sections were examined under a Leica DC100 microscope (Leica, Wetzlar, Germany). Quantification of the immunohistochemical analyses was performed using ImageJ software (https://imagej.nih.gov/). The staining intensities were expressed as arbitrary units and considered 1 in the vehicle group.

MiaPaCa2 xenografts = experiment: In vivo xenograft assay, MiaPaCa2; design: species or system mice; conditions: FA4 750 and 1500 nmol i.p. daily, 15 days
Procedure: 2 × 10^5 PANC-1 or Mia-PaCa2 cells were inoculated subcutaneously in the right flank of 6-week old C57BL/6 female nude mice (Charles River Laboratories Italia, Calco), housed (5 per cage) under a 12 h light/dark cycle, with food and drinking water provided ad libitum. Tumor growth was measured daily by caliper, according to the equation (LxW^2)/2, where L = tumor length and W = tumor width. When tumors reached a volume of 100 mm^3, the mice (n = 8/group) were randomized in the following groups and treated daily for 15 days or 30 days intraperitoneally as reported: (1) Vehicle group (100 µl saline solution), (2) FA4^low group (750 nmol FA4 in 100 µl saline solution), (3) FA4^high group (1500 nmol FA4 in 100 µl saline solution) and (4) Gemcitabine group (20 mg/kg gemcitabine, twice a week). Tumor volumes and animal weights were monitored daily. Animals were euthanized at day 18 or 36 after randomization with zolazepam (0.2 ml/kg) and xylazine (16 mg/kg). Next, tumors were excised and paraffin-embedded. […] Quantification of the immunohistochemical analyses was performed using ImageJ software (https://imagej.nih.gov/). The staining intensities were expressed as arbitrary units and considered 1 in the vehicle group.

[7] = mouse, in vivo
Procedure: (§5) 2 × 10^5 PANC-1 or Mia-PaCa2 cells were inoculated subcutaneously in the right flank of 6-week old C57BL/6 female nude mice (Charles River Laboratories Italia, Calco), housed (5 per cage) under a 12 h light/dark cycle, with food and drinking water provided ad libitum. Tumor growth was measured daily by caliper, according to the equation (LxW^2)/2, where L = tumor length and W = tumor width. […] Tumor volumes and animal weights were monitored daily. Animals were euthanized at day 18 or 36 after randomization with zolazepam (0.2 ml/kg) and xylazine (16 mg/kg). […] Red blood cell (RBC) count, hemoglobin (Hb), white blood cell (WBC) count, platelet (PLT) count, lactate dehydrogenase (LDH), aspartate aminotransferase (AST), alanine aminotransferase (ALT), alkaline phosphatase (AP), creatinine and creatine phosphokinase (CPK) were measured in blood samples collected immediately after euthanasia, using commercially available kits from Beckman Coulter Inc (Beckman Coulter, Miami, FL, USA).
(§6) Blood was collected immediately after euthanasia and analyzed for red blood cells (RBC) count, hemoglobin (Hb), white blood cells (WBC) count, platelets (PLT) count, lactate dehydrogenase (LDH), aspartate aminotransferase (AST), alanine aminotransferase (ALT), alkaline phosphatase (AP), creatinine, creatine phosphokinase (CPK). Data are presented as means ± SD.

[8] = Systemic toxicity and hematochemical parameters of treated PANC-1 tumor-bearing mice; conditions: PANC-1 tumor-bearing mice, 30 days treatment
Procedure: as §5, §6

T2 sequence (Q5BJF2 whole entry): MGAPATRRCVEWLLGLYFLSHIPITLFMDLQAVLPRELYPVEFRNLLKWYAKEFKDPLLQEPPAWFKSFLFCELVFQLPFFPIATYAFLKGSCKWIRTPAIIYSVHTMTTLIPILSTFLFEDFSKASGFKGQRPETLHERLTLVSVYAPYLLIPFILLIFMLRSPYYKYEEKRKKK
T1 sequence (Q5U3Y7 whole entry): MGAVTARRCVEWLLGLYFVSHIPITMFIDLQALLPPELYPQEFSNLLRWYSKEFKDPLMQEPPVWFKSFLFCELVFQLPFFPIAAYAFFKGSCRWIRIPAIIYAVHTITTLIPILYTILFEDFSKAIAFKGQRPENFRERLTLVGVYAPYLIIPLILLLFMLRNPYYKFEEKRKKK
T3 sequence (Q8VD00 whole entry): as the sequence (Q5U3Y7 whole entry) above, with V4L, T5A, M26L, L33V, F71L, V105A, I118L, I127V, N136S, F169Y counted along it

`CN(C)C(=S)N/N=C1\C(=O)N(CCCCN2CCC3(CC2)OCc2ccccc23)c2ccccc21` [FA4, (Z)-2-(1-(4-(3 H-spiro[isobenzofuran-1,4’-piperidine]-1’-yl)butyl)-2-oxoindolin-3-ylidene)-N,N-dimethylhydrazinecarbothioamide] gave a Ki (sigma-2 receptors [1]) of 0.0158 ± 0.0036 µM, an IC50 (sigma-2 receptors [2]; Flow Cytometry, IC50 ± SEM, Sigma-2, AspC1, AspC1 cells, displacement of NO1) of 0.0106 ± 0.0022 µM and an IC50 (sigma-2 receptors [2]; Flow Cytometry, IC50 ± SEM, Sigma-2, MiaPaCa2, MiaPaCa2 cells, displacement of NO1) of 0.00913 ± 0.0011 µM. For the same compound, the IC50 (sigma-2 receptors [2]; Flow Cytometry, IC50 ± SEM, Sigma-2, PANC-1, PANC-1 cells, displacement of NO1) was 0.0114 ± 0.0023 µM, the IC50 (sigma-2 receptors [2]; IC50 at sigma-2 receptors by flow cytometry, across MiaPaCa2, PANC-1, Aspc1 and (murine) KP02 cells) was 0.00913 to 0.0116 µM and ~0.01 µM and the IC50 (sigma-2 receptors [3]) was 0.0116 ± 0.0015 µM. For the same compound, the EC50 (PANC02 cells) was 1.94 ± 0.5 µM, the EC50 [4] was 0.88 to 3.01 µM and the “caspase 3 activation” value (caspase 3; 50 µM, MiaPaCa2, PANC-1, AspC1, KP02, PANC02 cells) was “activated caspase 3 in all the cell lines investigated; also recorded: most potent inducer of caspase 3 in all cell lines tested”. The “induction of caspases 3, 7, 9 at IC50 concentration” value (caspase 3; concentration corresponding to IC50 in each cell line) was “significant inducer of caspases in all the cell lines analyzed, except for MiaPaCa2”, the “caspase 7 activation” value (caspase 7) was “activated by FA4 in all cell lines except MiaPaCa2” and the “activation of caspase 9 and caspase 3 with mitoquinol” value (caspase 9; 50 µM FA4 plus 0.4 µM mitoquinol) was “did not find any activation of caspase 9 and caspase 3”. The “caspase 9 activation” value (caspase 9; 50 µM) was “observed in all the cells in which FA4 increased mitochondrial ROS and depolarization”, the “protein expression of ER stress sensors and executers (Western blot)” value [5] was “in all cell lines except MiaPaCa2, this thiosemicarbazone was able to increase the expression of ER stress sensors and executers” and the “mitochondrial ROS” value (mitochondrial ROS) was “increased mitochondrial ROS in all the cell lines tested, except MiaPaCa2”. The “levels of autophagosome proteins, p62 and LC3 conversion” value [6] was “reduced the levels of all the above-mentioned proteins as well as the LC-I/LC-II conversion in responsive cells, but not in MiaPaCa2 cells”, the “tumor volume vs vehicle” value (PANC-1 xenografts; FA4 750 nmol (low) and 1500 nmol (high) i.p. daily, 15 days) was “tumors were significantly smaller” and the tumor growth (PANC-1 xenografts; FA4 high dosage 1500 nmol i.p. daily) was “regression of tumor growth”. The “intratumor apoptosis (cleaved caspase 3) and lipid peroxidation” value (PANC-1 xenografts; FA4 high dosage) was “became more pronounced”, the tumor growth (PANC-1 xenografts; FA4 low dosage 750 nmol i.p. daily) was “cytostatic effect” and the “intratumor apoptosis (cleaved caspase 3) and lipid peroxidation” value (PANC-1 xenografts; FA4 low dosage) was “low or undetectable”. The tumor growth (MiaPaCa2 xenografts) was “ineffective at both dosages”, the “blood cell counts and hemato-chemical parameters vs control” value [7] was “no significant differences” and the “treatment-related deaths, weight loss, abnormalities in behavior” value [8] was “No treatment-related deaths, weight loss or abnormalities in mouse behavior were observed”.
